Measurements: publication PMC6881293, “Nanomolar-potency ‘co-potentiator’ therapy for cystic fibrosis caused by a defined subset of minimal function CFTR mutants” (Scientific Reports, 2019)

What was measured:
N1303K-CFTR = target: T1, N1303K-CFTR (Homo sapiens, UniProt P13569, N1303K); experiment: Short-circuit current in FRT cells expressing N1303K-CFTR; assay type: cell-based
T1 construct: expressed in transfected cells
Procedure: Based on prior studies[10],[11],[20], we hypothesized that distinct binding sites may be required to bind a potentiator and co-potentiator to rescue channel activity of CFTR mutants. We defined the potentiator VX-770 as a Class I compound, and co-potentiator ASP-11 as a Class II compound (Fig. 3A,D). Short-circuit current measurements in N1303K-CFTR-expressing FRT cells confirmed synergy when ASP-11 was added after VX-770 (Fig. 3Bi). […] In each experiment, CFTRinh-172 confirmed that current was from CFTR.
Figure 3 Definition of Class I and II CFTR potentiators. (A) Chemical structures of Class I and II potentiators. (B) Short-circuit current in FRT cells expressing N1303K-CFTR in response to forskolin and indicated potentiators. Concentrations: 20 μM forskolin, 5 μM VX-770, 20 μM ASP-11, 20 μM GLPG1837, 20 μM P2, 20 μM P3, 20 μM P5, 20 μM W1282Xpot-C01, and 10 μM CFTRinh-172. C. Short-circuit current in FRT cells expressing Q1313X-CFTR in response to forskolin and indicated potentiators. Concentrations: as in panel B, and 25 μM apigenin. (D) Summary of relative N1303K-CFTR activation in response to combinations of Class I and Class II potentiators. Mean ± S.E.M., n = 3. TEXT PRINTED IN THE PICTURE: (D) VX-770: N1303K-CFTR: P5: 1% ±1%; N1303K-CFTR: GLPG 1837: 10% ±5%; N1303K-CFTR: ASP-11: 100% ±3%; N1303K-CFTR: apigenin: 100% ±5% | (D) P5: N1303K-CFTR: VX-770: 1% ±1%; N1303K-CFTR: GLPG 1837: 2% ±2%; N1303K-CFTR: ASP-11: 52% ±5%; N1303K-CFTR: apigenin: 56% ±5% | (D) GLPG 1837: N1303K-CFTR: VX-770: 0% ±5%; N1303K-CFTR: P5: 2% ±2%; N1303K-CFTR: ASP-11: 100% ±4%; N1303K-CFTR: apigenin: 98% ±5% | (D) ASP-11: N1303K-CFTR: VX-770: 100% ±3%; N1303K-CFTR: P5: 47% ±4%; N1303K-CFTR: GLPG 1837: 100% ±5%; N1303K-CFTR: apigenin: 7% ±3% | (D) apigenin: N1303K-CFTR: VX-770: 100% ±5%; N1303K-CFTR: P5: 50% ±5%; N1303K-CFTR: GLPG 1837: 100% ±5%; N1303K-CFTR: ASP-11: 5% ±2% DOUBTS OF THE COPYIST ABOUT THIS PICTURE: Panel D is a matrix of pairs of substances (row substance combined with column substance). The picture prints no name for the measure, only % values and a 0%–100% colour scale. / The print in panel D is small, so 3, 5, 6 and 8 are hard to tell apart in these values. / VX-770 / GLPG 1837: ±5% could be ±3% / VX-770 / ASP-11: ±3% could be ±5% / VX-770 / apigenin: ±5% could be ±3% / P5 / ASP-11: 52% ±5%, digits uncertain / P5 / apigenin: 56% could be 58%, and ±5% is uncertain / GLPG 1837 / VX-770: 0% ±5%, error digit uncertain / GLPG 1837 / apigenin: 98% could be 96%, and ±5% is uncertain / ASP-11 / VX-770: ±3% could be ±5% / ASP-11 / GLPG 1837: ±5% could be ±3% / ASP-11 / apigenin: 7% ±3%, error digit uncertain / apigenin / VX-770: ±5% could be ±3% / apigenin / P5: 50% ±5%, digits uncertain / apigenin / GLPG 1837: ±5% could be ±3% / apigenin / ASP-11: 5% ±2%, the 5 is uncertain
(§1) Figures 5C,D show data in N1303K- and Q1313X-expressing FRT cells.
(§2) Short-circuit current was measured on cells cultured on Snapwell clear permeable supports (Corning) as described[10],[11]. Hemichambers were connected to a DVC-1000 voltage clamp (World Precision Instruments Inc., Sarasota, FL) via Ag/AgCl electrodes and 3 M KCl agar bridges for recording of the short-circuit current. For human airway epithelial cells, symmetrical HCO3^−-buffered solutions (in mM: 120 NaCl, 5 KCl, 1 MgCl2, 1 CaCl2, 5 Hepes, 25 NaHCO3, 10 glucose, pH 7.4) for basolateral and apical side were used. For FRT cells, the basolateral membrane was permeabilized with 250 μg/ml amphotericin B, and experiments were done with a chloride gradient using a HCO3^−-buffered solutions (Basolateral (mM): 120 NaCl, 5 KCl, 1 MgCl2, 1 CaCl2, 5 Hepes, 25 NaHCO3, 10 glucose, pH 7.4; apical (mM): 60 NaCl, 60 mM sodium gluconate, 5 KCl, 1 MgCl2, 1 CaCl2, 5 Hepes, 25 NaHCO3, 10 glucose, pH 7.4). All cells were equilibrated with 95% O2, 5% CO2 and maintained at 37 °C during experiments.

Q1313X-CFTR = target: T2, Q1313X-CFTR (Homo sapiens, UniProt P13569); experiment: Short-circuit current in FRT cells expressing Q1313X-CFTR; assay type: cell-based
T2 construct: expressed in transfected cells
Procedure: As shown in Fig. 1C and summarized in Fig. 2, ASP-11 acted in synergy with VX-770 to increase chloride current in FRT cells expressing the NBD2 mutations I1234del- and Q1313X-CFTR by ~3–9-fold compared to VX-770. I1234del- and Q1313X-CFTR-expressing cells were also treated with VX-809 for 24 hours (to consider the effect of available CFTR therapeutics) with 2–3-fold greater currents observed.
Studies on FRT cells expressing Q1313X-CFTR produced similar data (Fig. 3C).
as §1, §2

T1 sequence (P13569 whole entry N1303K): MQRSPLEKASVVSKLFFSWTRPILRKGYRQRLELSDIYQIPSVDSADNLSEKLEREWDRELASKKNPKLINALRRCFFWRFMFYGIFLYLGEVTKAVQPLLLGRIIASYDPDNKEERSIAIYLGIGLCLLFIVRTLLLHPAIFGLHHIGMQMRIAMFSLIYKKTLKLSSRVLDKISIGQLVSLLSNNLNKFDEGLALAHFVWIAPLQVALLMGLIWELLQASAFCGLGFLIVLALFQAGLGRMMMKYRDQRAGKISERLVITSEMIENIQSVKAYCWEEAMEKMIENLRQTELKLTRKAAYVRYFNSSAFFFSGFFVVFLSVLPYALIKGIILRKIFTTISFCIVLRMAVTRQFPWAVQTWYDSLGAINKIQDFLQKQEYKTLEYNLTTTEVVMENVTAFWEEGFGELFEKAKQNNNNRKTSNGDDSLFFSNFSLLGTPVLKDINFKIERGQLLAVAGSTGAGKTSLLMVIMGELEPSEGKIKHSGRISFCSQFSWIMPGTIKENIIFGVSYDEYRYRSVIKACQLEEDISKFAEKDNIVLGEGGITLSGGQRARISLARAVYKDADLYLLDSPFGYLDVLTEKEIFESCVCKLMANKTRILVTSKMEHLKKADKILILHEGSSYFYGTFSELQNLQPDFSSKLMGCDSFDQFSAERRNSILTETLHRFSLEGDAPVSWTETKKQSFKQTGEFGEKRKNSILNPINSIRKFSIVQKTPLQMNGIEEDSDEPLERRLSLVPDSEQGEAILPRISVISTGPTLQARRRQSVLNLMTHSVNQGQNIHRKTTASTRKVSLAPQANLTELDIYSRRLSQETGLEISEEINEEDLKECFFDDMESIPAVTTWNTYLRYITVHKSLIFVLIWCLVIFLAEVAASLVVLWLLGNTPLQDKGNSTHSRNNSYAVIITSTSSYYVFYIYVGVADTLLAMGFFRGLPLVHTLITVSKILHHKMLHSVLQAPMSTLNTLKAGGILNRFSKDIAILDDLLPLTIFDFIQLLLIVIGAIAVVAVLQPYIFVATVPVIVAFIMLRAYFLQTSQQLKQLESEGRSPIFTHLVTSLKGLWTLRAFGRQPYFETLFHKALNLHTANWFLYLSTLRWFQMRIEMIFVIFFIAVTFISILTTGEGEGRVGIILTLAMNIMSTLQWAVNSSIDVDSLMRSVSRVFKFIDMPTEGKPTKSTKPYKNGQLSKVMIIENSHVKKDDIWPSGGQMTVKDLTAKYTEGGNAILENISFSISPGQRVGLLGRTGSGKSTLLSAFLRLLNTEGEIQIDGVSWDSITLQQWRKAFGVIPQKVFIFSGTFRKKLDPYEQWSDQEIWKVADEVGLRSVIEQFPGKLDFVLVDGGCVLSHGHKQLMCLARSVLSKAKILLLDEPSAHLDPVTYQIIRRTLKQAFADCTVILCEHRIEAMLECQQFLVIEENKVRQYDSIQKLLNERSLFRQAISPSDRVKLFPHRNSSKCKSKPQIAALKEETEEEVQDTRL
T2 sequence (P13569 1-1312 limits assumed): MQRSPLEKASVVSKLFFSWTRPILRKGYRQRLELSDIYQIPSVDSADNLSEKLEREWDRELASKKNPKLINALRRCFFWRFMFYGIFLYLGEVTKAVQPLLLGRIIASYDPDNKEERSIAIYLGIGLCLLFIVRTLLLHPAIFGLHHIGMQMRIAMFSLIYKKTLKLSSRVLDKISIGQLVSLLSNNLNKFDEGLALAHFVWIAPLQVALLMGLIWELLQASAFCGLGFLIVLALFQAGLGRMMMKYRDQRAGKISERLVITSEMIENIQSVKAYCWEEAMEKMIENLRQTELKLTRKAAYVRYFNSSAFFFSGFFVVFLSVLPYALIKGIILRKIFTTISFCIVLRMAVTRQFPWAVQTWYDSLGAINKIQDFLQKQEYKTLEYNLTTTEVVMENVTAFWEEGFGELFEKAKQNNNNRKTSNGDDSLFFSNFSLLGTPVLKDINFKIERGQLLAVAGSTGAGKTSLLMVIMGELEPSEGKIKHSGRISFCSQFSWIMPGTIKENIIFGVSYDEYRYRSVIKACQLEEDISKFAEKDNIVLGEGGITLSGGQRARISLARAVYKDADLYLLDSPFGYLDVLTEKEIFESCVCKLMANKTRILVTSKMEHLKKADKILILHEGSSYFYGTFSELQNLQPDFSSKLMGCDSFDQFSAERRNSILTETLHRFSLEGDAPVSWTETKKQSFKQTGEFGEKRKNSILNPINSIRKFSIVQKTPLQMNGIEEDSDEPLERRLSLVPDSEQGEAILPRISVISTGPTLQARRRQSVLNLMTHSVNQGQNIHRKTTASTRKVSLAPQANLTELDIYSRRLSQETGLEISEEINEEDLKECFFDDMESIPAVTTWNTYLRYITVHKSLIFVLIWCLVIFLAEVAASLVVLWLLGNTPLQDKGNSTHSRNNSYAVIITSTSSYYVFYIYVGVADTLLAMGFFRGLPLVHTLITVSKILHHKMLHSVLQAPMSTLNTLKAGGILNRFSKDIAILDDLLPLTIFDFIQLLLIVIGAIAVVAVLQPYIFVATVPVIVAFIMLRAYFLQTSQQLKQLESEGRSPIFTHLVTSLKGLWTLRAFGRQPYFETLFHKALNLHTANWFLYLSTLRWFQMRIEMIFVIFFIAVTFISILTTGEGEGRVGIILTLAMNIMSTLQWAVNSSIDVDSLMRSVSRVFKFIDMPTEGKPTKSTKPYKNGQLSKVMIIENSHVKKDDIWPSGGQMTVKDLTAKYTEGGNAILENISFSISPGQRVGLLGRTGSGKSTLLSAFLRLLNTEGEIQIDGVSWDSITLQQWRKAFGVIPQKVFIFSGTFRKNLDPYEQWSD

COc1ccc2[nH]c3c(c2c1)CCNC31CCN(Cc2ccc(F)cc2F)CC1 [Compound A061]
EC50 (N1303K-CFTR; FRT cells expressing N1303K-CFTR, after 20 µM forskolin and 5 µM VX-770): 2.9 µM
EC50 (Q1313X-CFTR; FRT cells expressing Q1313X-CFTR, after 20 µM forskolin and 5 µM VX-770): 5 µM

CCCCn1cc(S(=O)(=O)Nc2ccc(CC)cc2)c2cccnc21 [ASP-11]
activation by two Class II potentiators added together (N1303K-CFTR; N1303K-CFTR FRT cells, 20 μM W1282Xpot-C01 and 20 μM ASP-11, no Class I potentiator): little activation
short-circuit current response when added after VX-770 (N1303K-CFTR; N1303K-CFTR FRT cells, 20 μM forskolin, 5 μM VX-770, then 20 μM compound): synergy
increase in chloride current with ASP-11 plus VX-770 compared to VX-770 alone (Q1313X-CFTR; Q1313X-CFTR FRT cells, 20 µM forskolin, 5 µM VX-770, 20 µM ASP-11, range stated jointly for I1234del- and Q1313X-CFTR): 3–9 fold

CC(C)(C)c1cc(C(C)(C)C)c(NC(=O)c2c[nH]c3ccccc3c2=O)cc1O [VX-770, ivacaftor]
short-circuit current response when added after GLPG1837 (N1303K-CFTR; N1303K-CFTR FRT cells, 20 μM forskolin, 20 μM GLPG1837): mildly reduced current
short-circuit current response when added after GLPG1837 (Q1313X-CFTR; Q1313X-CFTR FRT cells, 20 μM forskolin, 20 μM GLPG1837): reduced current
